According to patent US20220002400A1 (priority 2019, published 2022):
“And” between values parts separate entries of the source, which are not always exact repeats. Equal values may be shown once.

What was measured:
Format in all cases: cell-based
A549 cells = conditions: 100 nM for 1 hour at 37° C.
Influenza A PR8 virus [1] = system: Influenza A PR8 virus
Influenza A PR8 virus [2] = conditions: 10 nM

SMILES | lysotracker staining (A549 cells) | protection against IAV infection (percentage of HA+ cells) (Influenza A PR8 virus [1]) | effect of baloxavir marboxil treatment combined with CRISPR deletion on Influenza A virus infection (Influenza A PR8 virus [2]; 1 nM, 5 nM) | reduction of the rate of Influenza A virus infection compared to untreated cells, according to Hemagglutinin staining (Influenza A PR8 virus [2])
CO/C1=C\C(C)=C\[C@@H](C)[C@@H](O)[C@@H](C)C/C(C)=C/C=C/[C@H](OC)[C@@H]([C@@H](C)[C@@H](O)[C@H](C)[C@@]2(O)C[C@@H](O)[C@H](C)[C@@H](C(C)C)O2)OC1=O [BafA, Bafilomycin A] | a decrease in lysotracker staining was observed | further protected the KO cells against IAV infection | – | –
COC(=O)OCOc1c2n(ccc1=O)N([C@@H]1c3ccccc3SCc3c1ccc(F)c3F)[C@@H]1COCCN1C2=O [baloxavir marboxil] | – | – | synergistic effect with baloxavir marboxil treatment but to a lesser extent compared to CMTR1 | 58% and 91%
